Laboratory results published in PubChem BioAssay AID1918999 (Molecular Pharmacology Branch, DTP, NCI, 2023).

Tested on: 556581-035-R-J1-PDC complex spheroid growth
Assay: Anticancer human tumor 556581-035-R-J1-PDC patient-derived ovarian carcinoma cell line growth inhibition [AhR]
Settings: for IC50: curve of first compound; for viability, T/C: stronger effect = lower value
Procedure, shortened: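 Spheroids combined tumor cells with HUVEC endothelial cells and human MSCs as stroma. AhR antagonists were paired with standard or investigational drugs, each dosed in half-log steps down from near clinical Cmax, or from 10 microM where Cmax was unknown.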

[1] = second compound 0.1 µM, first compound 0.0316 µM
[2] = second compound 0.1 µM, first compound 0.1 µM
[3] = second compound 0.1 µM, first compound 0.316 µM
[4] = second compound 0.1 µM, first compound 1 µM
[5] = second compound 0.1 µM, first compound 3.16 µM
[6] = second compound 0.1 µM, first compound 10 µM
[7] = second compound 0.316 µM, first compound 0.0316 µM
[8] = second compound 0.316 µM, first compound 0.1 µM
[9] = second compound 0.316 µM, first compound 0.316 µM
[10] = second compound 0.316 µM, first compound 1 µM
[11] = second compound 0.316 µM, first compound 3.16 µM
[12] = second compound 0.316 µM, first compound 10 µM
[13] = second compound 1 µM, first compound 0.0316 µM
[14] = second compound 1 µM, first compound 0.1 µM
[15] = second compound 1 µM, first compound 0.316 µM
[16] = second compound 1 µM, first compound 1 µM
[17] = second compound 1 µM, first compound 3.16 µM
[18] = second compound 1 µM, first compound 10 µM
[19] = second compound 3.16 µM, first compound 0.0316 µM
[20] = second compound 3.16 µM, first compound 0.1 µM
[21] = second compound 3.16 µM, first compound 0.316 µM
[22] = second compound 3.16 µM, first compound 1 µM
[23] = second compound 3.16 µM, first compound 3.16 µM
[24] = second compound 3.16 µM, first compound 10 µM
[25] = second compound 10 µM, first compound 0.0316 µM
[26] = second compound 10 µM, first compound 0.1 µM
[27] = second compound 10 µM, first compound 0.316 µM
[28] = second compound 10 µM, first compound 1 µM
[29] = second compound 10 µM, first compound 3.16 µM
[30] = second compound 10 µM, first compound 10 µM
[31] = second compound 0.1 µM, first compound 0.00316 µM
[32] = second compound 0.1 µM, first compound 0.01 µM
[33] = second compound 0.316 µM, first compound 0.00316 µM
[34] = second compound 0.316 µM, first compound 0.01 µM
[35] = second compound 1 µM, first compound 0.00316 µM
[36] = second compound 1 µM, first compound 0.01 µM
[37] = second compound 3.16 µM, first compound 0.00316 µM
[38] = second compound 3.16 µM, first compound 0.01 µM
[39] = second compound 10 µM, first compound 0.00316 µM
[40] = second compound 10 µM, first compound 0.01 µM
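For viability, T/C in this document: compound exposure lasted 7 days; 100% = DMSO vehicle control growth.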

| IC50 (second compound 0.1 µM) [nM] | IC50 (second compound 0.316 µM) [nM] | IC50 (second compound 1 µM) [nM] | IC50 (second compound 3.16 µM) [nM] | IC50 (second compound 10 µM) [nM] | SMILES | viability, T/C [1] [%] | viability, T/C [2] [%] | viability, T/C [3] [%] | viability, T/C [4] [%] | viability, T/C [7] [%] | viability, T/C [8] [%] | viability, T/C [9] [%] | viability, T/C [10] [%] | viability, T/C [13] [%] | viability, T/C [14] [%] | viability, T/C [15] [%] | viability, T/C [19] [%] | viability, T/C [20] [%] | viability, T/C [25] [%] | viability, T/C [26] [%] | also measured |
| --- | --- | --- | --- | --- | --- | --- | --- | --- | --- | --- | --- | --- | --- | --- | --- | --- | --- | --- | --- | --- | --- |
| > 10000 | > 10000 | > 10000 | > 10000 | > 10000 | CC(C)c1c(-c2ccccc2)nc2c(C#N)c[nH]n2c1=O + Cc1ccccc1N=Nc1ccc(NC(=O)c2ccnn2C)c(C)c1 | 106 | 111 | 103 | 104 | 96.7 | 94.1 | 107 | 96.1 | 110 | 108 | 96 | 95.6 | 92.2 | 94.7 | 86.8 | viability, T/C [5]: 97.7%; viability, T/C [6]: 93.4%; viability, T/C [11]: 85.5%; viability, T/C [12]: 103%; viability, T/C [16]: 106%; viability, T/C [17]: 106%; viability, T/C [18]: 95.8%; viability, T/C [21]: 104%; viability, T/C [22]: 83.6%; viability, T/C [23]: 96%; viability, T/C [24]: 87.9%; viability, T/C [27]: 80.9%; viability, T/C [28]: 91.5%; viability, T/C [29]: 84.5%; viability, T/C [30]: 76.9% |
| > 100 | > 100 | > 100 | > 100 | > 100 | CC[C@@]1(O)C(=O)OCc2c1cc1n(c2=O)Cc2cc3c(CN(C)C)c(O)ccc3nc2-1 + Cc1cncc(-c2nc(NCCc3c[nH]c4ccccc34)c3ncn(C(C)C)c3n2)c1 | 85 | 64.3 |  |  | 90.2 | 62.3 |  |  | 83.4 | 57.9 |  | 81.3 | 62.6 | 76.9 | 67.2 | viability, T/C (second compound 0.1 µM, first compound 0.000316 µM): 114%; viability, T/C (second compound 0.1 µM, first compound 0.001 µM): 110%; viability, T/C [31]: 105%; viability, T/C [32]: 97.6%; viability, T/C (second compound 0.316 µM, first compound 0.000316 µM): 108%; viability, T/C (second compound 0.316 µM, first compound 0.001 µM): 115%; viability, T/C [33]: 109%; viability, T/C [34]: 97.4%; viability, T/C (second compound 1 µM, first compound 0.000316 µM): 117%; viability, T/C (second compound 1 µM, first compound 0.001 µM): 115%; viability, T/C [35]: 105%; viability, T/C [36]: 95%; viability, T/C (second compound 3.16 µM, first compound 0.000316 µM): 95.3%; viability, T/C (second compound 3.16 µM, first compound 0.001 µM): 101%; viability, T/C [37]: 104%; viability, T/C [38]: 101%; viability, T/C (second compound 10 µM, first compound 0.000316 µM): 99.8%; viability, T/C (second compound 10 µM, first compound 0.001 µM): 103%; viability, T/C [39]: 99.3%; viability, T/C [40]: 88.1% |
| 8380 | 5930 | 5940 | 7000 | > 10000 | COc1cc(C2c3cc4c(cc3C(OC3OC5COC(C)OC5C(O)C3O)C3COC(=O)C23)OCO4)cc(OC)c1O (stereo not given) + Cc1cncc(-c2nc(NCCc3c[nH]c4ccccc34)c3ncn(C(C)C)c3n2)c1 | 97.9 | 97.9 | 87.4 | 72.4 | 94 | 107 | 88.8 | 75.9 | 95.6 | 103 | 92.8 | 96.7 | 92.5 | 83.7 | 76.8 | viability, T/C [5]: 62.2%; viability, T/C [6]: 47.4%; viability, T/C [11]: 65.3%; viability, T/C [12]: 39%; viability, T/C [16]: 78.8%; viability, T/C [17]: 59%; viability, T/C [18]: 42.9%; viability, T/C [21]: 89.2%; viability, T/C [22]: 72.4%; viability, T/C [23]: 64.7%; viability, T/C [24]: 43.7%; viability, T/C [27]: 78.2%; viability, T/C [28]: 73.8%; viability, T/C [29]: 62.9%; viability, T/C [30]: 50.6% |
| 382 | 380 | 403 | 349 | 351 | COc1cccc2c1C(=O)c1c(O)c3c(c(O)c1C2=O)CC(O)(C(=O)CO)CC3OC1CC(N)C(O)C(C)O1 (stereo not given) + Cc1cncc(-c2nc(NCCc3c[nH]c4ccccc34)c3ncn(C(C)C)c3n2)c1 | 87 | 89.8 | 58.3 | 6.64 | 84.8 | 82.5 | 58.3 | 6.48 | 81.9 | 73.8 | 62.9 | 77.7 | 74.8 | 80.8 | 68.8 | viability, T/C [5]: 0.94%; viability, T/C [6]: 1.6%; viability, T/C [11]: 0.61%; viability, T/C [12]: 2.51%; viability, T/C [16]: 3.27%; viability, T/C [17]: 0.86%; viability, T/C [18]: 2.01%; viability, T/C [21]: 54.4%; viability, T/C [22]: 2.38%; viability, T/C [23]: 1.27%; viability, T/C [24]: 3.59%; viability, T/C [27]: 54.8%; viability, T/C [28]: 2.24%; viability, T/C [29]: 1.87%; viability, T/C [30]: 3.7% |
| < 31.6 | < 31.6 | < 31.6 | < 31.6 | 6070 | Nc1ccn(C2OC(CO)C(O)C2(F)F)c(=O)n1 (stereo not given) + Cc1cncc(-c2nc(NCCc3c[nH]c4ccccc34)c3ncn(C(C)C)c3n2)c1 | 32.8 | 34.5 | 35.8 | 32.9 | 34.5 | 34.9 | 37 | 37.6 | 31.8 | 36.1 | 36 | 43.3 | 45.4 | 55.7 | 64.2 | viability, T/C [5]: 34.1%; viability, T/C [6]: 28.2%; viability, T/C [11]: 29.2%; viability, T/C [12]: 32.7%; viability, T/C [16]: 36.5%; viability, T/C [17]: 32.7%; viability, T/C [18]: 28.6%; viability, T/C [21]: 44.3%; viability, T/C [22]: 45.9%; viability, T/C [23]: 38.2%; viability, T/C [24]: 33%; viability, T/C [27]: 57%; viability, T/C [28]: 62.7%; viability, T/C [29]: 48.1%; viability, T/C [30]: 48.6% |
| > 1000 | > 1000 | > 1000 | > 1000 | > 1000 | Nc1ncn(C2CC(O)C(CO)O2)c(=O)n1 (stereo not given) + Cc1cncc(-c2nc(NCCc3c[nH]c4ccccc34)c3ncn(C(C)C)c3n2)c1 | 106 | 89 | 84.8 | 77.4 | 90.7 | 87 | 93.1 | 85.6 | 104 | 110 | 92.6 | 93.6 | 94.7 | 81.6 | 82 | viability, T/C [31]: 97.2%; viability, T/C [32]: 95.1%; viability, T/C [33]: 102%; viability, T/C [34]: 93.6%; viability, T/C [35]: 91.4%; viability, T/C [36]: 105%; viability, T/C [16]: 82.2%; viability, T/C [37]: 98.2%; viability, T/C [38]: 95.5%; viability, T/C [21]: 88.3%; viability, T/C [22]: 90.2%; viability, T/C [39]: 83.7%; viability, T/C [40]: 78.5%; viability, T/C [27]: 81.8%; viability, T/C [28]: 83.6% |
